According to patent US20080292584A1 (priority 2005, published 2008):
“And” between values parts separate entries of the source, which are not always exact repeats. Equal entries are not always repeated. Where two headings read alike, the source gives them in different places.

Experiments:
human CYP1A2 = target: T1, human CYP1A2 (Homo sapiens, UniProt P05177); assay: Metabolism of metaxalone by expressed recombinant human CYP1A2 at 5 or 20 pmol (Example 4, LC-MS/MS); conditions: for percent turnover / % Turnover Mean / [metaxalone] Mean / % Turnover % / [metaxalone]: 60 min; for % Turnover % / [metaxalone]: single replicates, listed as Metaxalone
T1 sequence (P05177 2-516 limits assumed): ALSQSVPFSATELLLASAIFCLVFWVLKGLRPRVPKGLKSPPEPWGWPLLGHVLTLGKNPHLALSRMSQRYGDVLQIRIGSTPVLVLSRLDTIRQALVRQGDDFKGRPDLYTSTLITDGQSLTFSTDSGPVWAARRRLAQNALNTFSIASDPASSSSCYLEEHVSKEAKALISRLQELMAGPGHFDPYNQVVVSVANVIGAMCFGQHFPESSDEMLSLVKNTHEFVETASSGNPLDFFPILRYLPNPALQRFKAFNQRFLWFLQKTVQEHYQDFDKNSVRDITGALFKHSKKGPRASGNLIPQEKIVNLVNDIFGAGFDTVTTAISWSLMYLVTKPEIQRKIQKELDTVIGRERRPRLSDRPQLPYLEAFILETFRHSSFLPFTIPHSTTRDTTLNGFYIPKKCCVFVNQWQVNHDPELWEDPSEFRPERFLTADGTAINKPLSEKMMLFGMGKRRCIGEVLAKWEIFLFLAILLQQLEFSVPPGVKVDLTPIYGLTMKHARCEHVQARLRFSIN

CYP2E1 = CYP2E1 (Homo sapiens, UniProt P05181); assay: Induction/inhibition of CYP2E1 activity in cryopreserved human hepatocytes (chlorzoxazone)
Excerpt: Hepatocytes from three human donors were obtained from a cryopreserved hepatocyte bank (In Vitro Technologies, Inc., USA). After thawing, viable hepatocytes were transferred to collagen-coated 48-well plates for attachment in plating medium (DMEM stock (Dulbecco's modified Eagle's medium, supplemented with bovine serum albumin, fructose, N-(2-hydroxyethyl)piperazine-N′-(2-ethanesulfonate) (HEPES), and sodium bicarbonate), supplemented with antibiotics, bovine serum, hydrocortisone, insulin and minimum essential medium (MEM) nonessential amino acids). After attachment to the collagen matrix, plating medium was replaced with sandwich medium (plating medium supplemented with VITROGEN) and incubated until use.
The supplemented KHB was replaced with 150 μL supplemented KHB containing the appropriate isoform-selective substrate and incubated for 4 hrs prior to termination by adding 150 μL ice-cold methanol, except for the CYP2C8 incubations which were terminated by adding 150 μL acetonitrile.
All substrates were dissolved in acetonitrile.
Replicate trials and controls were performed. […] Additionally, reference control samples were included to evaluate inducibility of CYP2B6, CYP2C9, and CYP2C19 in the test system.
Mean specific activity values with associated p-values≦0.05 were deemed to be statistically significant.

CYP2C9 = CYP2C9 (Homo sapiens, UniProt P11712); conditions: 1 mg/mL HLM, 60 min, with sulfaphenazole; for % Turnover / % inhibition of turnover / Conc.: single replicates
Protocol: Human liver microsomes pooled from 15 individuals (male and female) (Pool HMMC-PL020; CellzDirect, Inc., In Vitro Products and Services Division) were used in some experiments of this study.
% Turnover=100−{[TA(final)]/[mean of TA(0 min)]}×100,
% Inhibition of Turnover=100{1−([TA(0 min)]−[TA(final-inhibitor)])/([TA(0 min)]−[TA(final-no inhibitor)])}.
The inhibitors or vehicle control were incubated with the pooled human liver microsomes (1 mg/mL) and NADPH (1 mM) in 0.1 M phosphate buffer, pH 7.4. […] Incubations were conducted in triplicate and terminated by addition of organic solvent. Samples were extracted and analyzed by LC-MS/MS as described above.

CYP2C8 = target: T2, CYP2C8 (Homo sapiens, UniProt P10632); assay: Metabolism of metaxalone by expressed recombinant human CYP2C8 at 5 or 20 pmol (Example 4); conditions: for % Turnover Mean / [metaxalone] Mean / % Turnover % / [metaxalone]: 60 min; for % Turnover % / [metaxalone]: single replicates
T2 sequence (P10632 1-490): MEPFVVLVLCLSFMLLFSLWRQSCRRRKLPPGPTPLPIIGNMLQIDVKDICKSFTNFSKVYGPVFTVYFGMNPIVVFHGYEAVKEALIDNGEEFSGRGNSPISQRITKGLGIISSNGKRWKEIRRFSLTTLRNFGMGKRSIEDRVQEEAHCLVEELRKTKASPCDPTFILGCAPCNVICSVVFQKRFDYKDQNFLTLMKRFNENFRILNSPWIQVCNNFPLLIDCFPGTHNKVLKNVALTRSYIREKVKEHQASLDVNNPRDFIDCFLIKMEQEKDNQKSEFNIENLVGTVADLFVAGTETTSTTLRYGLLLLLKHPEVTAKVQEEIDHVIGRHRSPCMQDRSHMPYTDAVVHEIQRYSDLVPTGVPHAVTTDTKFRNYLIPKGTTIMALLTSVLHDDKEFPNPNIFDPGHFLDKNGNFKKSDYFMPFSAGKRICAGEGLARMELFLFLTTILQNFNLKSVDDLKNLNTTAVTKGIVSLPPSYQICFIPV

[1] = 0.75 μM metaxalone, 20 pmol cyp
[2] = 0.75 μM metaxalone, 5 pmol cyp, listed as Metaxalone
[3] = 0.75 μM metaxalone, 20 pmol cyp, listed as Metaxalone
[4] = 7.5 μM metaxalone, 5 pmol cyp, listed as Metaxalone
[5] = 7.5 μM metaxalone, 20 pmol cyp, listed as Metaxalone

CYP2E1, sequence (P05181 whole entry): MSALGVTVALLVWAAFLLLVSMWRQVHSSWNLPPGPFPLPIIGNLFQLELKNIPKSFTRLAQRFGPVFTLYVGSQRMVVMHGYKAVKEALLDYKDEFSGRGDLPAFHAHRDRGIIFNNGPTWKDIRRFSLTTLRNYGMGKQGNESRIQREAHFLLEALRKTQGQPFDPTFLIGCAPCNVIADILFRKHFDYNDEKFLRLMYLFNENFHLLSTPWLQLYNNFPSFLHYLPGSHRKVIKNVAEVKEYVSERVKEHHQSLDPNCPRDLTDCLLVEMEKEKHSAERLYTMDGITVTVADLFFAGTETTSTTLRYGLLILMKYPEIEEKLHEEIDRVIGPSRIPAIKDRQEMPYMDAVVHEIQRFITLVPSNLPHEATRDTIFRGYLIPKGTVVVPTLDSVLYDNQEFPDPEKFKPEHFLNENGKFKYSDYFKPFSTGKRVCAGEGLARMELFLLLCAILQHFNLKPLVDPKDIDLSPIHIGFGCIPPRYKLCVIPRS
CYP2C9, sequence (P11712 whole entry): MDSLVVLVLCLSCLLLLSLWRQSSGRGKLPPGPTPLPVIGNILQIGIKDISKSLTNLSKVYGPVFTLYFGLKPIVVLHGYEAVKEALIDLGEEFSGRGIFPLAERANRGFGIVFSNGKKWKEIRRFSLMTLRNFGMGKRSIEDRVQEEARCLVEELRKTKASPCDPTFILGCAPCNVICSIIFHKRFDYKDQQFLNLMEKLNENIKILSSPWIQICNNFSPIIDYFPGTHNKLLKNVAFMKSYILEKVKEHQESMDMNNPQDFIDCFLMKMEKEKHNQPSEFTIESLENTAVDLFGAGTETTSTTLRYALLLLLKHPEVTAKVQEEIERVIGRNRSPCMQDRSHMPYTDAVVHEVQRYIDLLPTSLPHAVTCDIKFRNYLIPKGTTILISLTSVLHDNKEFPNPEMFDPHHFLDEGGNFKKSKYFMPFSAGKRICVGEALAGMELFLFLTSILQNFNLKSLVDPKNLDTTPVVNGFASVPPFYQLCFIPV

SMILES: Cc1cc(C)cc(OCC2CNC(=O)O2)c1 (stereo not shown) [metaxalone, 5-[(3,5-dimethylphenoxy)methyl]-2-oxazolidinone]
- percent turnover (human CYP1A2; 0.75 μM metaxalone, 5 pmol CYP450): 9.2%
- % Turnover Mean (human CYP1A2; 0.75 μM metaxalone, 5 pmol cyp): 9.2%
- [metaxalone] Mean (human CYP1A2; 0.75 μM metaxalone, 5 pmol cyp): 0.719 µM
- % Turnover % (human CYP1A2; 0.75 μM metaxalone, 5 pmol cyp): 17.5% and 6.2% and 3.9%
- [metaxalone] (human CYP1A2; 0.75 μM metaxalone, 5 pmol cyp): 0.653 µM and 0.742 µM and 0.761 µM
- percent turnover (human CYP1A2; 0.75 μM metaxalone, 20 pmol CYP450): 34.8%
- % Turnover Mean (human CYP1A2; [1]): 34.8%
- [metaxalone] Mean (human CYP1A2; [1]): 0.516 µM
- % Turnover % (human CYP1A2; [1]): 31.7% and 35.5% and 37.3%
- [metaxalone] (human CYP1A2; [1]): 0.540 µM and 0.511 µM and 0.496 µM
- percent turnover (human CYP1A2; 7.5 μM metaxalone, 5 pmol CYP450): 10.0%
- % Turnover Mean (human CYP1A2; 7.5 μM metaxalone, 5 pmol cyp): 10.0%
- [metaxalone] Mean (human CYP1A2; 7.5 μM metaxalone, 5 pmol cyp): 7.60 µM
- % Turnover % (human CYP1A2; 7.5 μM metaxalone, 5 pmol cyp): 14.3% and 5.7%
- [metaxalone] (human CYP1A2; 7.5 μM metaxalone, 5 pmol cyp): 7.24 µM and 7.97 µM
- percent turnover (human CYP1A2; 7.5 μM metaxalone, 20 pmol CYP450): 30.4%
- % Turnover Mean (human CYP1A2; 7.5 μM metaxalone, 20 pmol cyp): 30.4%
- [metaxalone] Mean (human CYP1A2; 7.5 μM metaxalone, 20 pmol cyp): 5.88 µM
- % Turnover % (human CYP1A2; 7.5 μM metaxalone, 20 pmol cyp): 33.3% and 32.3% and 25.5%
- [metaxalone] (human CYP1A2; 7.5 μM metaxalone, 20 pmol cyp): 5.63 µM and 5.72 µM and 6.29 µM
- Substrate (human CYP1A2; CYP isozyme 1A2, summary of studies): +
- Inducer/Inhibitor (CYP2E1; CYP isozyme 2E1, summary of studies): 0
- Specific Activity Individual (CYP2E1; Donor 1, Metaxalone 0.4 μM): 2.58 pmol/min/million cells and 2.66 pmol/min/million cells and 2.19 pmol/min/million cells
- Specific Activity Mean ± SD (CYP2E1; Donor 1, Metaxalone 0.4 μM): 2.47 ± 0.249 pmol/min/million cells
- Percent of VC (CYP2E1; Donor 1, Metaxalone 4 μM): 104%
- Specific Activity Individual (CYP2E1; Donor 1, Metaxalone 4 μM): 2.57 pmol/min/million cells and 2.47 pmol/min/million cells and 2.87 pmol/min/million cells
- Specific Activity Mean ± SD (CYP2E1; Donor 1, Metaxalone 4 μM): 2.64 ± 0.210 pmol/min/million cells
- Percent of VC (CYP2E1; Donor 1, Metaxalone 40 μM): 104%
- Specific Activity Individual (CYP2E1; Donor 1, Metaxalone 40 μM): 2.54 pmol/min/million cells and 2.66 pmol/min/million cells and 2.69 pmol/min/million cells
- Specific Activity Mean ± SD (CYP2E1; Donor 1, Metaxalone 40 μM): 2.63 ± 0.0782 pmol/min/million cells
- Percent of VC (CYP2E1; Donor 2, Metaxalone 0.4 μM): 104%
- Specific Activity Individual (CYP2E1; Donor 2, Metaxalone 0.4 μM): 0.631 pmol/min/million cells and 0.683 pmol/min/million cells and 0.765 pmol/min/million cells
- Specific Activity Mean ± SD (CYP2E1; Donor 2, Metaxalone 0.4 μM): 0.693 ± 0.0673 pmol/min/million cells
- Percent of VC (CYP2E1; Donor 2, Metaxalone 4 μM): 89.6%
- Specific Activity Individual (CYP2E1; Donor 2, Metaxalone 4 μM): 0.564 pmol/min/million cells and 0.605 pmol/min/million cells and 0.626 pmol/min/million cells
- Specific Activity Mean ± SD (CYP2E1; Donor 2, Metaxalone 4 μM): 0.598 ± 0.0317 pmol/min/million cells
- Percent of VC (CYP2E1; Donor 2, Metaxalone 40 μM): 99.6%
- Specific Activity Individual (CYP2E1; Donor 2, Metaxalone 40 μM): 0.558 pmol/min/million cells and 0.633 pmol/min/million cells and 0.804 pmol/min/million cells
- Specific Activity Mean ± SD (CYP2E1; Donor 2, Metaxalone 40 μM): 0.665 ± 0.126 pmol/min/million cells
- Percent of VC (CYP2E1; Donor 3, Metaxalone 0.4 μM): 90.7%
- Specific Activity Individual (CYP2E1; Donor 3, Metaxalone 0.4 μM): 0.449 pmol/min/million cells and 0.474 pmol/min/million cells and 0.462 pmol/min/million cells
- Specific Activity Mean ± SD (CYP2E1; Donor 3, Metaxalone 0.4 μM): 0.462 ± 0.0125 pmol/min/million cells
- Percent of VC (CYP2E1; Donor 3, Metaxalone 4 μM): 87.7%
- Specific Activity Individual (CYP2E1; Donor 3, Metaxalone 4 μM): 0.468 pmol/min/million cells and 0.464 pmol/min/million cells and 0.406 pmol/min/million cells
- Specific Activity Mean ± SD (CYP2E1; Donor 3, Metaxalone 4 μM): 0.446 ± 0.0348 pmol/min/million cells
- Percent of VC (CYP2E1; Donor 3, Metaxalone 40 μM): 93.9%
- Specific Activity Individual (CYP2E1; Donor 3, Metaxalone 40 μM): 0.470 pmol/min/million cells and 0.495 pmol/min/million cells and 0.469 pmol/min/million cells
- Specific Activity Mean ± SD (CYP2E1; Donor 3, Metaxalone 40 μM): 0.478 ± 0.0146 pmol/min/million cells
- effects on CYP activity (CYP2E1; any of the tested concentrations (0.4, 4.0, 40 μM)): no significant effects
- % Turnover Mean (CYP2C9; 0.75 μM metaxalone): 5.53%
- % inhibition of turnover Mean (CYP2C9; 0.75 μM metaxalone): 81.4%
- Mean Conc. (CYP2C9; 0.75 μM metaxalone): 0.729 µM
- % Turnover (CYP2C9; 0.75 μM metaxalone): 5.4% and 5.6% (2×)
- % inhibition of turnover (CYP2C9; 0.75 μM metaxalone): 81.9% and 81.3%
- Conc. (CYP2C9; 0.75 μM metaxalone): 0.730 µM
- % Turnover Mean (CYP2C9; 7.5 μM metaxalone): 11.6%
- % inhibition of turnover Mean (CYP2C9; 7.5 μM metaxalone): 52.8%
- Mean Conc. (CYP2C9; 7.5 μM metaxalone): 7.52 µM
- % Turnover (CYP2C9; 7.5 μM metaxalone): 10.2% and 12.6%
- % inhibition of turnover (CYP2C9; 7.5 μM metaxalone): 51.0% and 58.5% and 48.8%
- Conc. (CYP2C9; 7.5 μM metaxalone): 7.49 µM and 7.65 µM and 7.44 µM
- % Turnover Mean (CYP2C8; 0.75 μM metaxalone, 5 pmol cyp): −9.3%
- [metaxalone] Mean (CYP2C8; 0.75 μM metaxalone, 5 pmol cyp): 0.865 µM
- % Turnover % (CYP2C8; [2]): −2.6% and −10.9% and −14.3%
- [metaxalone] (CYP2C8; [2]): 0.812 µM and 0.877 µM and 0.905 µM
- % Turnover Mean (CYP2C8; [1]): 2.9%
- [metaxalone] Mean (CYP2C8; [1]): 0.768 µM
- % Turnover % (CYP2C8; [3]): 0.19% and 6.1% and 2.5%
- [metaxalone] (CYP2C8; [3]): 0.790 µM and 0.743 µM and 0.771 µM
- % Turnover Mean (CYP2C8; 7.5 μM metaxalone, 5 pmol cyp): 3.0%
- [metaxalone] Mean (CYP2C8; 7.5 μM metaxalone, 5 pmol cyp): 8.20 µM
- % Turnover % (CYP2C8; 7.5 μM metaxalone, 5 pmol cyp): −1.6%
- % Turnover % (CYP2C8; [4]): 0.21%
- [metaxalone] (CYP2C8; [4]): 7.58 µM and 8.43 µM and 8.58 µM
- % Turnover Mean (CYP2C8; 7.5 μM metaxalone, 20 pmol cyp): 9.3%
- [metaxalone] Mean (CYP2C8; 7.5 μM metaxalone, 20 pmol cyp): 7.66 µM
- % Turnover % (CYP2C8; [5]): 4.3% and 10.2% and 13.4%
- [metaxalone] (CYP2C8; [5]): 8.09 µM and 7.59 µM and 7.31 µM
- Substrate (CYP2C8; CYP isozyme 2C8, summary of studies): +
